Reference: ChEMBL document CHEMBL1132382 (J Med Chem, 1999)
Values after ≈ are worked out from the molar mass of the structure shown. Blank lines part the entries; values can stand above or below the molecule they belong to.

How the values were obtained:
Oryctolagus cuniculus [1] = species: Oryctolagus cuniculus; assay: The compound was evaluated for fall in intraocular pressure (IOP) of Normotensive rabbits after treatment with one drop (50 microL) of a 2% solution at 0 min (pH 7.5); assay type: functional, Eye
Oryctolagus cuniculus [2] = species: Oryctolagus cuniculus; assay: The compound was evaluated for fall in intraocular pressure (IOP) of Normotensive rabbits after treatment with one drop (50 microL) of a 2% solution at 90 min (pH 7.5); assay type: functional, Eye
Oryctolagus cuniculus [3] = species: Oryctolagus cuniculus; assay: The compound was evaluated for fall in intraocular pressure (IOP) of Glaucomatous rabbits after treatment with one drop (50 microL) of a 2% solution at 0 min (pH 7.5); assay type: functional, Eye
Carbonic anhydrase 4 = biological target: T1, Carbonic anhydrase 4 (Bos taurus, UniProt Q95323)
T1 sequence (Q95323 whole entry): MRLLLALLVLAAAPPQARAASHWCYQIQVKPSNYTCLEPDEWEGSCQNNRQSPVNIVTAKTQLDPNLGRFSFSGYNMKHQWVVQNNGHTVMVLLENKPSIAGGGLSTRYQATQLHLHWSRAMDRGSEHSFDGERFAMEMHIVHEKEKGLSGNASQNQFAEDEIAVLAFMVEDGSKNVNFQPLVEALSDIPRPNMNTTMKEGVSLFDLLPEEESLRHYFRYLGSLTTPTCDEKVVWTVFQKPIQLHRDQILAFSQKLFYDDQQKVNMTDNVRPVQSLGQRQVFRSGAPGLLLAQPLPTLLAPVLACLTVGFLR
Description: Inhibitory activity against bovine carbonic anhydrase IV (CA4), isolated from bovine lung microsomes

Oryctolagus cuniculus [4] = species: Oryctolagus cuniculus; assay: The compound was evaluated for fall in intraocular pressure (IOP) of Glaucomatous rabbits after treatment with one drop (50 microL) of a 2% solution at 60 min (pH 7.5); assay type: functional, Eye
Carbonic anhydrase 1 = Carbonic anhydrase 1 (Homo sapiens, UniProt P00915)
Chain of Carbonic anhydrase 1 (P00915 whole entry): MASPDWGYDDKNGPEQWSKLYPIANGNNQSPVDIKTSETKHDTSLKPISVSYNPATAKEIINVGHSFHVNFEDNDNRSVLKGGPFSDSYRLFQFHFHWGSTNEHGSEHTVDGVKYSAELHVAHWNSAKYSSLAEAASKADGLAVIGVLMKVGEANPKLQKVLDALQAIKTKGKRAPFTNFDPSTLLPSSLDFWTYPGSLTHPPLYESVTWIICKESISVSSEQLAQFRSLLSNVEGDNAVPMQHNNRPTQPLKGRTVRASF
Description: Inhibitory activity against human recombinant carbonic anhydrase I (CA1)

Oryctolagus cuniculus [5] = species: Oryctolagus cuniculus; assay: The compound was evaluated for fall in intraocular pressure (IOP) of Glaucomatous rabbits after treatment with one drop (50 microL) of a 2% solution at 90 min (pH 7.5); assay type: functional, Eye
Oryctolagus cuniculus [6] = species: Oryctolagus cuniculus; assay: The compound was evaluated for fall in intraocular pressure (IOP) of Normotensive rabbits after treatment with one drop (50 microL) of a 2% solution at 60 min (pH 7.5); assay type: functional, Eye
physchem = conditions: buffer, pH 7.4
[7] = octanol/water
Description: Partition coefficient (logD) (chloroform/buffer)

Oryctolagus cuniculus [8] = species: Oryctolagus cuniculus; assay: The compound was evaluated for fall in intraocular pressure (IOP) of Normotensive rabbits after treatment with one drop (50 microL) of a 2% solution at 30 min (pH 7.5); assay type: functional, Eye
Oryctolagus cuniculus [9] = species: Oryctolagus cuniculus; assay: The compound was evaluated for fall in intraocular pressure (IOP) of Glaucomatous rabbits after treatment with one drop (50 microL) of a 2% solution at 30 min (pH 7.5); assay type: functional, Eye
[10] = not given; remark: listed apart in the source
Oryctolagus cuniculus [11] = species: Oryctolagus cuniculus; assay: The compound was evaluated for fall in intraocular pressure (IOP) of Glaucomatous rabbits after treatment with one drop (50 microL) of a 2% solution at 30 min (pH 6.0); assay type: functional, Eye
Oryctolagus cuniculus [12] = species: Oryctolagus cuniculus; assay: The compound was evaluated for fall in intraocular pressure (IOP) of Glaucomatous rabbits after treatment with one drop (50 microL) of a 2% solution at 60 min (pH 6.0); assay type: functional, Eye
Oryctolagus cuniculus [13] = species: Oryctolagus cuniculus; assay: The compound was evaluated for fall in intraocular pressure (IOP) of Normotensive rabbits after treatment with one drop (50 microL) of a 2% solution at 90 min (pH 5.5); assay type: functional, Eye
Oryctolagus cuniculus [14] = species: Oryctolagus cuniculus; assay: The compound was evaluated for fall in intraocular pressure (IOP) of Normotensive rabbits after treatment with one drop (50 microL) of a 2% solution at 60 min (pH 5.5); assay type: functional, Eye
Oryctolagus cuniculus [15] = species: Oryctolagus cuniculus; assay: The compound was evaluated for fall in intraocular pressure (IOP) of Normotensive rabbits after treatment with one drop (50 microL) of a 2% solution at 0 min (pH 5.5); assay type: functional, Eye
Oryctolagus cuniculus [16] = species: Oryctolagus cuniculus; assay: The compound was evaluated for fall in intraocular pressure (IOP) of Glaucomatous rabbits after treatment with one drop (50 microL) of a 2% solution at 0 min (pH 6.0); assay type: functional, Eye
Oryctolagus cuniculus [17] = species: Oryctolagus cuniculus; assay: The compound was evaluated for fall in intraocular pressure (IOP) of Glaucomatous rabbits after treatment with one drop (50 microL) of a 2% solution at 90 min (pH 6.0); assay type: functional, Eye
Oryctolagus cuniculus [18] = species: Oryctolagus cuniculus; assay: The compound was evaluated for fall in intraocular pressure (IOP) of Normotensive rabbits after treatment with one drop (50 microL) of a 2% solution at 30 min (pH 5.5); assay type: functional, Eye

- Ki (Carbonic anhydrase 4): 6 nM
- Ki (Carbonic anhydrase 1): 13 nM
- kin: 2 h⁻¹
- solubility (physchem): 51 mM (≈ 22.9 mg/mL)
- logD [7]: 0.754
- kin [10]: 5 h⁻¹
Structure (SMILES): NCC(=O)NCC(=O)Nc1ccc(S(=O)(=O)Nc2nnc(S(N)(=O)=O)s2)cc1
- Change in IOP (Oryctolagus cuniculus [1]): 0 mmHg
- Change in IOP (Oryctolagus cuniculus [2]): 9.1 mmHg
- Change in IOP (Oryctolagus cuniculus [3]): 0 mmHg
- Change in IOP (Oryctolagus cuniculus [4]): 11.8 mmHg
- Change in IOP (Oryctolagus cuniculus [5]): 13.1 mmHg
- Change in IOP (Oryctolagus cuniculus [6]): 8.8 mmHg
- Change in IOP (Oryctolagus cuniculus [8]): 5.9 mmHg
- Change in IOP (Oryctolagus cuniculus [9]): 7 mmHg

- Ki (Carbonic anhydrase 4): 9 nM
- Ki (Carbonic anhydrase 1): 14 nM
- kin: 3.1 h⁻¹
- solubility (physchem): 65 mM (≈ 25.5 mg/mL)
- logD [7]: 0.043
- kin [10]: 5.4 h⁻¹
Structure (SMILES): NCC(=O)Nc1ccc(S(=O)(=O)Nc2nnc(S(N)(=O)=O)s2)cc1
- Change in IOP (Oryctolagus cuniculus [11]): 7.9 mmHg
- Change in IOP (Oryctolagus cuniculus [12]): 12.5 mmHg
- Change in IOP (Oryctolagus cuniculus [13]): 9 mmHg
- Change in IOP (Oryctolagus cuniculus [14]): 9.5 mmHg
- Change in IOP (Oryctolagus cuniculus [15]): 0 mmHg
- Change in IOP (Oryctolagus cuniculus [16]): 0 mmHg
- Change in IOP (Oryctolagus cuniculus [17]): 14 mmHg
- Change in IOP (Oryctolagus cuniculus [18]): 5.9 mmHg
